How the values were obtained:
[1] = target: Cannabinoid receptor 1 (Mus musculus) (UniProt P47746); experiment: Positive allosteric modulatory activity at mouse CB1R expressed in CHO-K1 cells assessed as CP55940-induced beta-arrestin2 recruitment by pathhunter beta-arrestin assay relative to control; format: cell-based
Cannabinoid receptor 1 [2] = target: T1, Cannabinoid receptor 1 (Homo sapiens, UniProt P21554); experiment: Positive allosteric modulatory activity at human CB1R expressed in CHO-K1 cells assessed as CP55940-induced cAMP level by hit-hunter cAMP assay; format: functional, cell-based
Cannabinoid receptor 1 [3] = target: T1, Cannabinoid receptor 1; experiment: Positive allosteric modulatory activity at human CB1R expressed in CHO-K1 cells assessed as CP55940-induced cAMP level by hit-hunter cAMP assay relative to control; format: functional, cell-based
Cannabinoid receptor 1 [4] = target: Cannabinoid receptor 1 (Mus musculus, UniProt P47746); experiment: Positive allosteric modulatory activity at mouse CB1R expressed in CHO-K1 cells assessed as CP55940-induced beta-arrestin2 recruitment by pathhunter beta-arrestin assay; format: cell-based
Chain of Cannabinoid receptor 1 (Mus musculus, UniProt P47746) (P47746 whole entry): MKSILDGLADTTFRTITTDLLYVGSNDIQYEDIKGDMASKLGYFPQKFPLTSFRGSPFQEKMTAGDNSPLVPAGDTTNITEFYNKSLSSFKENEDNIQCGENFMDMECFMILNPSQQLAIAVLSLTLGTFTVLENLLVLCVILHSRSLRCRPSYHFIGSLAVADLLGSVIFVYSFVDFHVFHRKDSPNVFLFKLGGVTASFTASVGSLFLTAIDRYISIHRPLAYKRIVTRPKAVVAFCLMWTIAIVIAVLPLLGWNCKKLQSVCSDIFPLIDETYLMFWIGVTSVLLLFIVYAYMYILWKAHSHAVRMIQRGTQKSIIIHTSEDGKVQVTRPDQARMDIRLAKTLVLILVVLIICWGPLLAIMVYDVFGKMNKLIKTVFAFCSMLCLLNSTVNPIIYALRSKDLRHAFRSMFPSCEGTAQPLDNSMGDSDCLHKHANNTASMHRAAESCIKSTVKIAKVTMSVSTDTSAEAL

T1 sequence (P21554 whole entry): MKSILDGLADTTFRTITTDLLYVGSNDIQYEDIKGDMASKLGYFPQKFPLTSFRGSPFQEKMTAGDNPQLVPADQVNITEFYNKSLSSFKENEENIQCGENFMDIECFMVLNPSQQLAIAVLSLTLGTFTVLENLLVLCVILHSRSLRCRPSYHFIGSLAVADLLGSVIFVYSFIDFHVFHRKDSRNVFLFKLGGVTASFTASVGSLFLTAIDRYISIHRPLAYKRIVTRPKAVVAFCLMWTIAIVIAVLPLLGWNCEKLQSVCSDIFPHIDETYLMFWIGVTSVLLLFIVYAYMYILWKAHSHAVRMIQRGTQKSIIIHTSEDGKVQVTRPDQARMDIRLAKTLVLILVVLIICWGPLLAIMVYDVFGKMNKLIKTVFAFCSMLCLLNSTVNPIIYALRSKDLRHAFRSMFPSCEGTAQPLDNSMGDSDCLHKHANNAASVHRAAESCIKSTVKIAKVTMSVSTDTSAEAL
Chain of Cannabinoid receptor 1 (Mus musculus) (P47746 whole entry): as the sequence (P47746 whole entry) above

SMILES	Emax [1]	EC50 (Cannabinoid receptor 1 [2])	Emax (Cannabinoid receptor 1 [3])	EC50 (Cannabinoid receptor 1 [4])
O=[N+]([O-])CC(c1ccccc1)c1c(C2CCCCC2)[nH]c2ccccc12 (stereo unspecified)	0%	0.992 µM	121%	> 10 µM
Cn1c(-c2ccccc2)c(C(C[N+](=O)[O-])c2ccccc2)c2ccccc21 (stereo unspecified)	0%	> 10 µM	0%	> 10 µM
NCC(c1ccccc1)c1c(-c2ccccc2)[nH]c2ccccc12 (stereo unspecified)	12%	> 10 µM	12%	> 10 µM
O=[N+]([O-])CC(c1ccccc1)c1cn(-c2ccccc2)c2ccccc12 (stereo unspecified)	0%	> 10 µM	0%	> 10 µM
O=[N+]([O-])CC(c1ccccc1)c1c[nH]c2ccccc12 (stereo unspecified)	0%	> 10 µM	0%	> 10 µM
O=[N+]([O-])CCc1c(-c2ccccc2)[nH]c2ccccc12	0%	5.53 µM	85%	> 10 µM
O=[N+]([O-])CC(c1ccccc1)c1c(-c2ccccc2)[nH]c2ccccc12 (stereo unspecified)	46%		110%	0.94 µM
O=[N+]([O-])CC(c1ccccc1)c1cc[nH]c1-c1ccccc1 (stereo unspecified)	0%	> 10 µM	0%	> 10 µM

Reference: ChEMBL document CHEMBL4364331, “Identification of CB1 Receptor Allosteric Sites Using Force-Biased MMC Simulated Annealing and Validation by Structure-Activity Relationship Studies” (ACS Med Chem Lett, 2019)
